Source: patent US8470765B2, “Polypeptides and antibacterial or antiseptic use of same” (AnGes MG, Inc., priority 2009, dated 2013)
In brackets after ≈: the same amount, converted by molar mass. No end group written: not given here.

Key:
Fusarium solani JCM11383 = details: Table 4; two tests, first/second value where not identical
[1] = test system: Trichophyton mentagrophytes NBRC6124; details: Table 4; two tests, first/second value where not identical
Candida krusei NBRC1395 = details: Table 4; two tests, first/second value where not identical
[2] = test system: Alternaria alternata JCM5800; details: Table 4; two tests, first/second value where not identical
[3] = test system: Trichophyton rubrum NBRC9185; details: Table 4; two tests, first/second value where not identical
[4] = test system: Staphylococcus aureus ATCC29213; assay: ATP Assay (viability at 3 hours), Table 6; assay type: cell-based; details: 3 h, 5 μg/mL
Experimental: (§1) Bacteria (Escherichia coli ATCC 25922, Pseudomonas aeruginosa ATCC 27853, Staphylococcus aureus ATCC29213, and Staphylococcus epidermidis JCM 2414) were inoculated to Mueller-Hinton broth: MHB or LB medium, and cultured at a temperature and period suited for each strain. From the thus obtained colonies, each strain was inoculated to a fresh liquid medium and cultured for 16 to 20 hours. Then an aliquot having a volume (10 to 50 μL) appropriate to each strain was inoculated to a fresh liquid medium and cultured for 4 to 6 hours, followed by the measurement of the absorbance at 600 nm. After comparing the turbidity with McFarland #0.5, the resultant was diluted with a medium. Each strain was added to about 10^5 CFU/mL (final concentration).
(§2) Each of the peptide solutions to be tested was diluted with the medium to obtain a solution of 10 μg/mL. As positive controls, tobramycin (TOB), oxacillin (OX) and meropenem (MEPM) were used. By dilution with sterilized purified water to 1.0 mg/mL, positive control-containing media having concentrations of […], respectively for TOB; 0.5, 0.12 and 0.06 μg/mL, respectively, for OX; and 1.0, 0.25, 0.12, 0.06, 0.03 and 0.008 μg/mL respectively, for MEPM, were prepared. To a 96-well microtiter plate, 0.1 mL of the inoculation solution and 0.1 mL of the peptide- or positive control-containing medium having the respective concentration were added, and cultured at 37° C. for 3 hours. The well not containing the sample was used as a negative control. After the culturing, ATP was measured using BacTiter-Glo Microbial Cell Viability Assay kit of PROMEGA, and compared with that in the negative control to obtain a relative value which was defined as a viability. The antibacterial activity was evaluated based on the viability at 3 hours later using ATP as an index.
(§3) The medium used in this test for bacteria was Mueller-Hinton broth. Independent experiments were carried out twice for each strain.

[5] = test system: Escherichia coli ATCC 25922; assay: ATP Assay (viability at 3 hours), Table 6; assay type: cell-based; details: 3 h, 5 μg/mL
Experimental: as §1, §2, §3

[6] = test system: Pseudomonas aeruginosa ATCC 27853; assay: ATP Assay (viability at 3 hours), Table 6; assay type: cell-based; details: 3 h, 5 μg/mL
Experimental: as §1, §2, §3

[7] = test system: Staphylococcus aureus ATCC29213; assay: microbe, parasite or virus in culture; assay type: cell-based; details: Table 5; unit not given
Experimental: (§4) Bacteria (Escherichia coli ATCC 25922, Pseudomonas aeruginosa ATCC 27853, Staphylococcus aureus ATCC29213, Klebsiella pneumoniae JCM 1662, Enterobacter cloacae JCM 1232, Enterobacter aerogenes JCM 1235 and Staphylococcus epidermidis JCM 2414) were inoculated to Mueller-Hinton broth: MHB or LB medium, and cultured at a temperature and period suited for each strain. From the thus obtained colonies, each strain was inoculated to a fresh liquid medium and cultured for 16 to 20 hours. Then an aliquot having a volume (10 to 50 appropriate to each strain was inoculated to a fresh liquid medium and cultured for 4 to 6 hours, followed by the measurement of the absorbance at 600 nm. After comparing the turbidity with McFarland #0.5, the resultant was diluted with a medium. Each strain was added to about 10^5 CFU/mL (final concentration). Each of the peptide solutions to be tested was diluted with MHB to obtain a solution of 128 μg/mL. […] As controls, tobramycin (TOB: aminoglucoside antibiotic), oxacillin (OX:β-lactam antibiotic), meropenem (MEPM: carbapenem antibiotic) and ciprofloxacin (new quinolone antibiotic) were used. […] To a 96-well microtiter plate, 0.1 mL of the inoculation solution and 0.1 mL of the peptide- or positive control-containing medium having the respective concentration were added, and cultured at 37° C. for 16 to 24 hours (or a time period suited for the growth of the respective strain). The well not containing the sample was used as a negative control. After the culturing, the growth was visually observed, and the minimum concentration at which the growth was inhibited was defined as the minimum growth inhibition concentration (MIC). The medium used in this test for bacteria was Mueller-Hinton broth. Independent experiments were carried out twice or more for each strain.

[8] = test system: Staphylococcus epidermidis JCM 2414; assay: microbe, parasite or virus in culture; assay type: cell-based; details: Table 5; unit not given
Experimental: as §4

[9] = test system: Escherichia coli ATCC 25922; assay: microbe, parasite or virus in culture; assay type: cell-based; details: Table 5; unit not given
Experimental: as §4

[10] = test system: Pseudomonas aeruginosa ATCC 27853; assay: microbe, parasite or virus in culture; assay type: cell-based; details: Table 5; unit not given
Experimental: as §4

Compound | MIC Fusarium solani (Fusarium solani JCM11383) | MIC Trichophyton mentagrophytes [1] | MIC Candida krusei (Candida krusei NBRC1395) | MIC Alternaria alternata [2] | MIC Trichophyton rubrum [3] | Staphylococcus aureus ATP (viability, relative value to negative control) [4] | Escherichia coli ATP (viability, relative value to negative control) [5] | Pseudomonas aeruginosa ATP (viability, relative value to negative control) [6] | MIC Staphylococcus aureus [7] | MIC Staphylococcus epidermidis [8] | MIC Escherichia coli [9] | MIC Pseudomonas aeruginosa [10]
C[C@@H]1[C@H](O)[C@@H](C)/C=C/C=C/C=C/C=C/C=C/C=C/C=C/[C@H](O[C@@H]2O[C@H](C)[C@@H](O)[C@H](N)[C@@H]2O)C[C@@H]2O[C@](O)(C[C@@H](O)C[C@@H](O)[C@H](O)CC[C@@H](O)C[C@@H](O)CC(=O)O[C@H]1C)C[C@H](O)[C@H]2C(=O)O [amphotericin B, reference compound] | 1000 µg/mL (≈ 1080 µM) | 125 µg/mL (≈ 135 µM) | 2000 µg/mL (≈ 2160 µM) | 1000 µg/mL (≈ 1080 µM) | 250 µg/mL (≈ 271 µM) |  |  |  |  |  |  | 
Ac-RLKRLGERLKRKIQKLIRL-NH2 [SRP-33] |  |  |  |  |  | 1.6 | 2.9 | 2.8 | 16 | 8-16 | 8-16 | 8-16
GERLKRKIQKWIRW-NH2 [SRP-26] |  |  |  |  |  | 12.9 | 9.0 | 6.2 | 16 | 16-32 | 16-32 | 16
GRLKRIGERLKRKIQKWIRW-NH2 [SRP-24] |  |  |  |  |  | 2.7 | 8.2 | 1.3 | 16 | 8-32 | 16 | 8-16
GRLKRLGERLKRKIQKLIRL-NH2 [SRP-27] |  |  |  |  |  | 3.2 | 5.6 | 2.1 | 16 | 8-16 | 16 | 8-16
GRLKRLGERLKRKIQKWIRW-NH2 [SRP-22] |  |  |  |  |  | 5.0 | 4.5 | 1.4 | 8-16 | 8 | 8-16 | 8-16
GRLKRLGKRLKRKIQKLARL-NH2 [SRP-32] |  |  |  |  |  | 5.2 | 7.0 | 1.6 | 16 | 4-8 | 16 | 8-16
GRLKRVGERLKRKIQKWIRW-NH2 [SRP-23] |  |  |  |  |  | 3.0 | 2.8 | 1.5 | 8-16 | 8-16 | 16 | 8-16
KRLGERLKRKIQKLIRL-NH2 [SRP-30] |  |  |  |  |  | 6.3 | 19.9 | 2.0 | 16-64 | 8-16 | 64 | 8-16
LKRLGERLKRKIQKLIRL-NH2 [SRP-29] |  |  |  |  |  | 1.9 | 9.0 | 1.8 | 16-32 | 8 | 16-32 | 8
MGERLKRKIQKWIRW-NH2 [SRP-25] |  |  |  |  |  | 10.9 | 23.5 | 15.4 | 16 | 8-32 | 16 | 16
RLGERLKRKIQKLIRL-NH2 [SRP-31] |  |  |  |  |  | 19.7 | 27.4 | 9.7 | 32-64 | 8-16 | 32-64 | 16
RLKRLGERLKRKIQKL-NH2 [SRP-36] |  |  |  |  |  | 3.6 | 6.4 | 2.0 | 16-32 | 8 | 16-32 | 8-16
RLKRLGERLKRKIQKLI-NH2 [SRP-35] |  |  |  |  |  | 2.1 | 3.6 | 5.2 | 16-32 | 8 | 8-16 | 8-16
RLKRLGERLKRKIQKLIR-NH2 [SRP-34] |  |  |  |  |  | 2.6 | 4.4 | 2.8 | 16-32 | 8-16 | 8-16 | 8-16
RLKRLGERLKRKIQKLIRL-NH2 [SRP-28] |  |  |  |  |  | 5.2 | 7.1 | 1.4 | 16 | 8-16 | 16 | 4-8
